# How the values were obtained:
# Format in all cases: in vivo
# [1] = tested on: ADPRC activity and cADPR concentration in kidney tissue; assay: ADPRC activity and cADPR concentration in kidney tissue of renal disease mouse model; details: STZ mice, DCQA i.p. every day for 6 weeks
# Protocol: The ADPRC activity and cADPR concentration in the kidney tissue of a renal disease mouse model were measured by the method reported by Kim S Y et al. [Kim S Y, Park K H, Gul R, Jang K Y, Kim U H. Am. J. Physiol. Renal Physiol. 296: F291-F297, 2009]
# Specifically, 0.2 mL of 50 mM citrate buffer (pH 4.8) (control group and DCQA group) or 200 μL of 5 mg/mL streptozotocin (STZ, Sigma-Aldrich (USA)) dissolved in 50 mM citrate buffer (STZ group and STZ+DCQA group) was intraperitoneally injected to C57BL/6J mice. Blood glucose was measured from day 2 after the STZ injection and the mice whose blood glucose level was 300 mg/dL were divided into an STZ group and an STZ+DCQA group. […] In order to investigate the possibility as a therapeutic agent for a renal disease, the mouse was sacrificed and serum and kidney were taken.
# After lysing some of the kidney tissue with a lysis buffer, 45 μL of the lysed sample was treated with 5 μL of 2 mM NGD (nicotinamide guanine dinucleotide) and reacted at 37° C. for 1 hour. Then, the enzyme-substrate reaction was stopped by treating with 50 μL of 10% trichloroacetic acid. After centrifuging for 10 minutes and adding 80 μL of the supernatant to 720 μL of a 0.1 M sodium phosphate buffer, absorbance was measured at 297 nm (excitation) and 410 nm (emission) with a fluorescence spectrometer (Hitachi, Japan). […]
# [2] = tested on: hypertension mouse model (L-NAME, C57BL/6J mouse); assay: Blood pressure and creatinine clearance rate in L-NAME hypertension mouse model; details: DCQA 9 μg/mL 100 μL intraperitoneally every day for 7 days
# Protocol: The blood pressure and creatinine clearance rate in a hypertension mouse model were measured by the method reported by Allagnat et al. [Allagnat F, Haefliger J A, Lambelet M, Longchamp A, Berard X, Mazzolai L, Corpataux J M, Deglise S. Eur. J. Vasc. Endovasc. Surg. 51: 733-742, 2016] and Kim S Y et al. [Kim S Y, Park K H, Gul R, Jang K Y, Kim U H. Am. J. Physiol. Renal Physiol. 296: F291-F297, 2009]
# Specifically, 0.2 mL of 8 mg of L-NAME (Nw-nitro-L-arginine-methyl-ester, Sigma-Aldrich, USA) dissolved in 1 mL of saline was orally administered to C57BL/6J mouse every day. On days 7 and 14 of the oral administration, blood pressure was measured at the tail of the mouse. […] On day 6 after the DCQA treatment, the mouse was put in a metabolic cage and urine was collected for 24 hours.
# After measuring the blood pressure of the mouse (FIG. 11A), the mouse was sacrificed and serum was obtained.
# Creatinine clearance rate was calculated by measuring the creatinine levels in urine and serum using a creatinine assay kit (Bioassay Systems, USA) (FIG. 11B).
# [3] = tested on: kidney tissue of diabetic renal disease mouse model; assay: Histopathological change in kidney tissue of renal disease mouse model (H&E staining); details: STZ mice, DCQA i.p. every day for 6 weeks, FIG. 9
# Protocol: The histopathological change in the kidney tissue of a renal disease mouse model was measured by the method reported by Shu B et al. [Shu B, Feng Y, Gui Y, Lu Q, Wei W, Xue X, Sun X, He W, Yang J, Dai C. Cell. Signal. 42:249-258, 2018]
# Specifically, 0.2 mL of 50 mM citrate buffer (pH 4.8) (control group and DCQA group) or 200 μL of 5 mg/mL streptozotocin (STZ, Sigma-Aldrich (USA)) dissolved in 50 mM citrate buffer (STZ group and STZ+DCQA group) was intraperitoneally injected to C57BL/6J mice. Blood glucose was measured from day 2 after the STZ injection and the mice whose blood glucose level was 300 mg/dL were divided into an STZ group and an STZ+DCQA group. […] In order to investigate the possibility as a therapeutic agent for a renal disease, the mouse was sacrificed and serum and kidney were taken. Some of the extracted kidney was fixed in 10% formalin. The kidney tissue fixed in 10% formalin was cut into kidney tissue sections on a slide glass using a cryostat microtome. The kidney tissue sections were washed with running water for 5 minutes and then stained with hematoxylin for 5 minutes. After the staining, the tissue was washed with running water for 5 minutes. Then, the tissue was immersed in 157 mM hydrochloric acid 2 times and taken out quickly. Then, the tissue was immersed once in 0.25% ammonia water and taken out quickly. After washing again with running water for 5 minutes and staining with eosin for about 30 seconds, the tissue was reacted with 70% ethanol for 30 seconds, with 80% ethanol for 30 seconds, with 90% ethanol for 30 seconds, with 100% ethanol for 30 seconds, again with 100% ethanol for 30 seconds, and then again with 100% ethanol for 30 seconds. Finally, after reacting with xylene for 5 minutes and again with xylene for 5 minutes or longer, a cover glass was attached using a mounting solution.
compound,measurement,setting,value
"O=C(/C=C/c1ccc(O)c(O)c1)OC1[C@H](O)CC(OC(=O)/C=C/c2ccc(O)c(O)c2)(C(=O)O)C[C@H]1O (stereo partly shown) [DCQA, 1,4-dicaffeoylquinic acid]",cADPR concentration in kidney tissue,[1]; FIG. 7B,decreased the cADPR concentration increased by STZ to the level of the control group
same,ADP-ribosyl cyclase activity in kidney tissue,"[1]; NGD substrate, FIG. 7A",decreased the ADP-ribosyl cyclase activity increased by STZ to the level of the control group
same,blood pressure,[2]; FIG. 11A,no effect of lowering blood pressure
same,creatinine clearance rate,[2]; FIG. 11B,increase in creatinine clearance rate
same,"formation of transitional epithelial cells increased by STZ, recovered by DCQA",[3],to a level similar to that of the control group
same,"glomerulus hypertrophy increased by STZ, recovered by DCQA",[3],to a level similar to that of the control group
same,"infiltration of inflammatory cells increased by STZ, recovered by DCQA",[3],to a level similar to that of the control group
